{"source": "patent US20140271765A1", "about": "(priority 2013, published 2014)", "key": {"[1]": {"settings": "buprenorphine"}, "[2]": {"settings": "human, in vivo"}, "[3]": {"settings": "in vivo"}, "[4]": {"settings": "dog, in vivo"}, "[5]": {"settings": "2 implants, individual subjects"}}, "note": "Values joined by “and” are separate entries in the source; they are usually repeats but may differ in a detail not shown here. Equal values may be shown once. Read-outs that look alike come from different tables or passages of the source.", "data": [{"smiles": "CO[C@@]12CC[C@@]3(C[C@@H]1[C@](C)(O)C(C)(C)C)[C@H]1Cc4ccc(O)c5c4[C@@]3(CCN1CC1CC1)[C@H]2O5", "note": "[buprenorphine]", "values": [{"measurement": "Model predicted concentration at removal", "setting": "[1]; 2 implants, Mean", "value": 330.7, "unit": "pg/mL"}, {"measurement": "Time from implant to reaching 2x last concentration", "setting": "[1]; 2 implants, Mean", "value": 242.0, "unit": "h"}, {"measurement": "α-Half Life", "setting": "[1]; 2 implants, Mean", "value": 12.75, "unit": "h"}, {"measurement": "β-Half Life", "setting": "[1]; 2 implants, Mean", "value": 133.1, "unit": "h"}, {"measurement": "γ-Half life", "setting": "[1]; 2 implants, Mean", "value": 160.7, "unit": "weeks"}, {"measurement": "Model predicted concentration at removal", "setting": "[1]; 2 implants, Median", "value": 340.0, "unit": "pg/mL"}, {"measurement": "Time from implant to reaching 2x last concentration", "setting": "[1]; 2 implants, Median", "value": 231.0, "unit": "h"}, {"measurement": "α-Half Life", "setting": "[1]; 2 implants, Median", "value": 7.55, "unit": "h"}, {"measurement": "β-Half Life", "setting": "[1]; 2 implants, Median", "value": 124.0, "unit": "h"}, {"measurement": "γ-Half life", "setting": "[1]; 2 implants, Median", "value": 77.9, "unit": "weeks"}, {"measurement": "Model predicted concentration at removal", "setting": "[1]; [5]", "value": "263 pg/mL and 342 pg/mL (2×) and 252 pg/mL and 447 pg/mL and 338 pg/mL"}, {"measurement": "Time from implant to reaching 2x last concentration", "setting": "[1]; [5]", "value": "396 h and 259 h and 313 h and 180 h and 101 h and 203 h"}, {"measurement": "α-Half Life", "setting": "[1]; [5]", "value": "7.55 h and 4.17 h and 115 h and 39.7 h and 2.94 h and 9.41 h"}, {"measurement": "β-Half Life", "setting": "[1]; [5]", "value": "124 h and 206 h and 3578 h and 174 h and 52.3 h and 109 h"}, {"measurement": "γ-Half life", "setting": "[1]; [5]", "value": "29.9 weeks and 457 weeks and 35.7 weeks and 120 weeks"}, {"measurement": "Model predicted concentration at removal", "setting": "[1]; 4 implants, Mean", "value": 6.11, "unit": "pg/mL"}, {"measurement": "Time from implant to reaching 2x last concentration", "setting": "[1]; 4 implants, Mean", "value": 715.7, "unit": "h"}, {"measurement": "α-Half Life", "setting": "[1]; 4 implants, Mean", "value": 3230, "unit": "h"}, {"measurement": "β-Half Life", "setting": "[1]; 4 implants, Mean", "value": 15.95, "unit": "h"}, {"measurement": "Model predicted concentration at removal", "setting": "[1]; 4 implants, Median", "value": 5.76, "unit": "pg/mL"}, {"measurement": "Time from implant to reaching 2x last concentration", "setting": "[1]; 4 implants, Median", "value": 706.5, "unit": "h"}, {"measurement": "α-Half Life", "setting": "[1]; 4 implants, Median", "value": 3020, "unit": "h"}, {"measurement": "β-Half Life", "setting": "[1]; 4 implants, Median", "value": 15.75, "unit": "h"}, {"measurement": "duration of plateau of therapeutically-effective plasma level", "setting": "[2]", "value": "at least 24 weeks"}, {"measurement": "time until plasma concentration reaches a plateau", "setting": "[2]", "value": "about a few days to about two weeks"}, {"measurement": "shortest half-life during the plateau phase", "setting": "[3]; human", "value": 25, "unit": "weeks"}, {"measurement": "Cave from Day 21 to removal, higher in the higher dose group as compared with the lower dose group", "setting": "[3]", "value": 93, "unit": "%"}, {"measurement": "Cmax, higher in the higher dose group as compared with the lower dose group", "setting": "[3]", "value": 62, "unit": "%"}, {"measurement": "reduction in buprenorphine concentrations from Day 17 to removal", "setting": "[3]", "value": "≤ 50", "unit": "%"}, {"measurement": "time to reach plateau phase", "setting": "[3]", "value": "≤ 21", "unit": "days"}, {"measurement": "changes in plasma buprenorphine exposure with external heat", "setting": "[4]", "value": "No consistent changes"}, {"measurement": "mean steady state concentration (Css1)", "setting": "[4]", "value": 3.90, "unit": "ng/mL"}, {"measurement": "mean steady-state concentration (Css3)", "setting": "[4]", "value": 3.86, "unit": "ng/mL"}, {"measurement": "mean steady-state plasma buprenorphine concentration (Css2)", "setting": "[4]", "value": 4.37, "unit": "ng/mL"}, {"measurement": "steady state concentration (Css1), range", "setting": "[4]", "value": "3.01 to 4.77", "unit": "ng/mL"}, {"measurement": "steady-state concentration (Css3), range", "setting": "[4]", "value": "2.73 to 4.84", "unit": "ng/mL"}, {"measurement": "steady-state plasma buprenorphine concentration (Css2), range", "setting": "[4]", "value": "2.61 to 5.42", "unit": "ng/mL"}]}]}
